The text below walks through data of patent US20240199587A1, “HETEROCYCLIC COMPOUNDS” (Hoffmann-La Roche Inc., priority 2021, published 2024).

The structures appear in SMILES notation.

This test concerns the target T1, MAGL (Homo sapiens, UniProt Q99685).
T1 sequence (Q99685 1-303): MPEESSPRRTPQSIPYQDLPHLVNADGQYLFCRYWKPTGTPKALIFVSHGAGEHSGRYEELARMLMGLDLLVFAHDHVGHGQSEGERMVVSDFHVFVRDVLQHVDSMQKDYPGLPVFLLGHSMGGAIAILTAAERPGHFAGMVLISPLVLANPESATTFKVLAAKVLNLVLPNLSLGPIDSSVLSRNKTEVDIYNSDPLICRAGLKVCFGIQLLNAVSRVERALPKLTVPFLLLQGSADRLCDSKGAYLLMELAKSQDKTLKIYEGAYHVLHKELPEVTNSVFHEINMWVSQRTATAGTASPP
The test is described as follows: 2-AG assay (MAGL inhibitory activity, hydrolysis of 2-arachidonoylglycerol to arachidonic acid followed by mass spectrometry). The conditions noted are these: 8 μM 2-arachidonoylglycerol, 15 min pre-incubation, 30 min incubation at RT, RapidFire MS readout. In kind it is biochemical. The gist of the method:
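Human MAGL ([…] final) pre-incubated 15 min at RT with compound in 50 mM TRIS, 1 mM EDTA, 0.01% Tween-20, 2.5% DMSO; 8 μM 2-AG then added for 30 min at RT. Acetonitrile quench with d8-arachidonic acid; arachidonic acid measured by RapidFire SPE–MS/MS, activity from arachidonic acid/d8 ratio.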
A word on the IC50: it is the point on the concentration scale where inhibition reaches its midpoint. A low value points to inhibition by little substance. With `O=C(N1CC2(CCN(Cc3ccc(C(F)(F)F)nc3)CC2)C1)N1CC2(CC(n3cnc(C4CC4)n3)C2)C1` [Example 464, [6-(3-cyclopropyl-1,2,4-triazol-1-yl)-2-azaspiro[3.3]heptan-2-yl]-[7-[[6-(trifluoromethyl)-3-pyridyl]methyl]-2,7-diazaspiro[3.5]nonan-2-yl]methanone], the half-maximal inhibitory concentration (IC50) was determined as 5.05 nM. Under `O=C(N1CC2(CC(CNC3(C(F)(F)F)COC3)C2)C1)N1CC2(CC(n3cnc(C4CC4)n3)C2)C1` [Example 465, [6-(3-cyclopropyl-1,2,4-triazol-1-yl)-2-azaspiro[3.3]heptan-2-yl]-[6-[[[3-(trifluoromethyl)oxetan-3-yl]amino]methyl]-2-azaspiro[3.3]heptan-2-yl]methanone] stands 3.17 nM; under `O=C(N1CC(c2ccc(-c3nnc(C4(C(F)(F)F)CC4)[nH]3)cc2)C1)N1CC2(CC(n3cnc(C4CC4)n3)C2)C1` [Example 466, [6-(3-cyclopropyl-1,2,4-triazol-1-yl)-2-azaspiro[3.3]heptan-2-yl]-[3-[4-[5-[1-(trifluoromethyl)cyclopropyl]-4H-1,2,4-triazol-3-yl]phenyl]azetidin-1-yl]methanone], 1.17 nM. Under `O=C(N1CC(c2ccc(-c3n[nH]c(C4CC4)n3)cc2)C1)N1CC2(CC(n3cnc(C4CC4)n3)C2)C1` [Example 467, [6-(3-cyclopropyl-1,2,4-triazol-1-yl)-2-azaspiro[3.3]heptan-2-yl]-[3-[4-(5-cyclopropyl-1H-1,2,4-triazol-3-yl)phenyl]azetidin-1-yl]methanone] stands 2.36 nM; under `CS(=O)(=O)c1cc(F)cc(CC2CC3(C2)CN(C(=O)N2CC4(CC(n5cnc(C6CC6)n5)C4)C2)C3)c1` [Example 468, [6-(3-cyclopropyl-1,2,4-triazol-1-yl)-2-azaspiro[3.3]heptan-2-yl]-[6-[(3-fluoro-5-methylsulfonyl-phenyl)methyl]-2-azaspiro[3.3]heptan-2-yl]methanone], 0.15 nM; under `O=C(N1CC2(CC(n3cnc(C4CC4)n3)C2)C1)N1CC2(CN(Cc3ccc(S(=O)(=O)C(F)(F)F)cc3)C2)C1` [Example 469, [6-(3-cyclopropyl-1,2,4-triazol-1-yl)-2-azaspiro[3.3]heptan-2-yl]-[6-[[4-(trifluoromethylsulfonyl)phenyl]methyl]-2,6-diazaspiro[3.3]heptan-2-yl]methanone], 0.48 nM. On to `O=C(N1CC(c2cnc(NCC3(C(F)(F)F)CC3)cn2)C1)N1CC2(CC(n3cnc(C4CC4)n3)C2)C1` [Example 470, [6-(3-cyclopropyl-1,2,4-triazol-1-yl)-2-azaspiro[3.3]heptan-2-yl]-[3-[5-[[1-(trifluoromethyl)cyclopropyl]methylamino]pyrazin-2-yl]azetidin-1-yl]methanone], for which the IC50 worked out at 0.42 nM. For `O=C(N1CC(c2ccc(-c3n[nH]c(C4CCC4)n3)cc2)C1)N1CC2(CC(n3cnc(C4CC4)n3)C2)C1` [Example 471, [3-[4-(5-cyclobutyl-1H-1,2,4-triazol-3-yl)phenyl]azetidin-1-yl]-[6-(3-cyclopropyl-1,2,4-triazol-1-yl)-2-azaspiro[3.3]heptan-2-yl]methanone] the value was 0.69 nM; for `O=C(N1CC2(CC(n3cnc(C4CC4)n3)C2)C1)N1CC2(CN(Cc3ccc(C(F)(F)F)nn3)C2)C1` [Example 472, [6-(3-cyclopropyl-1,2,4-triazol-1-yl)-2-azaspiro[3.3]heptan-2-yl]-[6-[[6-(trifluoromethyl)pyridazin-3-yl]methyl]-2,6-diazaspiro[3.3]heptan-2-yl]methanone], 45.3 nM; for `O=C(N1CC2(CC(n3cnc(C4CC4)n3)C2)C1)N1CC2(CN(Cc3cnc(C(F)(F)F)cn3)C2)C1` [Example 473, [6-(3-cyclopropyl-1,2,4-triazol-1-yl)-2-azaspiro[3.3]heptan-2-yl]-[6-[[5-(trifluoromethyl)pyrazin-2-yl]methyl]-2,6-diazaspiro[3.3]heptan-2-yl]methanone], 11.4 nM.
